In ChEMBL document CHEMBL1125696, “Synthesis and structure-activity relationships of deltorphin analogues” (J Med Chem, 1991):
Non-standard residues stand in square brackets, D forms with d. Residues, ends and D or L forms follow the SMILES beside them. Abu = CC[C@H](N)C(=O)O

Legend:
Mu-type opioid receptor [1] = molecular target: T1, Mu-type opioid receptor (Rattus norvegicus, UniProt P33535); assay: Displacement of [3H]- DAGO from opioid receptor mu in rat brain membrane; type: cell membranes
[2] = molecular target: T2, Delta-type opioid receptor (Rattus norvegicus, UniProt P33533); assay: Displacement of [3H]DSLET from delta opioid receptor in rat brain membrane; type: cell membranes
[3] = molecular target: T2, Delta-type opioid receptor; assay: Displacement of [3H]- DPDPE from delta opioid receptor in rat brain membrane; type: cell membranes
Mu-type opioid receptor [4] = molecular target: T3, Mu-type opioid receptor (Cavia porcellus, UniProt P97266); assay: Inhibition of opioid receptor mu in guinea pig ileum (GPI); type: tissue-based
[5] = molecular target: T4, Delta-type opioid receptor (Mus musculus, UniProt P32300); assay: In vitro opioid receptor delta mediated mouse vas deferens (MVD) assay; type: tissue-based
[6] = molecular target: T2, Delta-type opioid receptor; assay: Opioid receptor binding affinity in rat brain membrane preparations by the displacement of [3H]DSLET (Opioid receptor delta 1-selective radioligand); type: cell membranes
Mu-type opioid receptor [7] = molecular target: T1, Mu-type opioid receptor; assay: Opioid receptor mu 1 binding affinity in rat brain membrane preparations by the displacement of [3H]- DAGO; type: cell membranes
[8] = molecular target: T4, Delta-type opioid receptor; assay: Compound is tested in vitro in mouse vas deferens (MVD) assay mediated by Opioid receptor delta 1; type: tissue-based
Mu-type opioid receptor [9] = molecular target: T3, Mu-type opioid receptor; assay: Compound is tested in vitro in guinea pig ileum (GPI) assay mediated by Opioid receptor mu 1; type: tissue-based
[10] = (§1) IC50 ratio is GPI/MVD
[11] = as §1; type: functional
[12] = IC50 ratio is [3H]- DAGO/[3H]-DSLET
[13] = molecular target: T2, Delta-type opioid receptor; assay: Opioid receptor binding affinity in rat brain membrane preparations by the displacement of [3H]- DPDPE (Opioid receptor delta 1-selective radioligand); type: cell membranes

T4 sequence (P32300 whole entry): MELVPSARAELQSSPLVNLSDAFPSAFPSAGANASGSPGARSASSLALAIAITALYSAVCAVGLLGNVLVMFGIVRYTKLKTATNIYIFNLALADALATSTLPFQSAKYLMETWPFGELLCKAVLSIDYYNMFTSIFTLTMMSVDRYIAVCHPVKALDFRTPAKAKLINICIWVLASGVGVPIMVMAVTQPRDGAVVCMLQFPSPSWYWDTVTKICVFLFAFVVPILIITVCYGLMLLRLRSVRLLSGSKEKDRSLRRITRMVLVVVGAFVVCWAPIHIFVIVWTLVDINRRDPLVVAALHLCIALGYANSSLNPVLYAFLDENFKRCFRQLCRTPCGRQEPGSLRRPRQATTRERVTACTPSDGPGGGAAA
T2 sequence (P33533 whole entry): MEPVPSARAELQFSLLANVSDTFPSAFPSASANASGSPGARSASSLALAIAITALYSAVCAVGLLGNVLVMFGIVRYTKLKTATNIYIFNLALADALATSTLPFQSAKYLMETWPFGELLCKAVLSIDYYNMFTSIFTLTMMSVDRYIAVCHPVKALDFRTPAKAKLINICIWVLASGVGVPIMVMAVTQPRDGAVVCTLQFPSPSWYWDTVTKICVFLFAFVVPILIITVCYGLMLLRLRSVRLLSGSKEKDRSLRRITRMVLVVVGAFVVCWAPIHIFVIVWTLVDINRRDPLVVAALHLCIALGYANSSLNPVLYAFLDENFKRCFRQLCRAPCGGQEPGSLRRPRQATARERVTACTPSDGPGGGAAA
T1 sequence (P33535 whole entry): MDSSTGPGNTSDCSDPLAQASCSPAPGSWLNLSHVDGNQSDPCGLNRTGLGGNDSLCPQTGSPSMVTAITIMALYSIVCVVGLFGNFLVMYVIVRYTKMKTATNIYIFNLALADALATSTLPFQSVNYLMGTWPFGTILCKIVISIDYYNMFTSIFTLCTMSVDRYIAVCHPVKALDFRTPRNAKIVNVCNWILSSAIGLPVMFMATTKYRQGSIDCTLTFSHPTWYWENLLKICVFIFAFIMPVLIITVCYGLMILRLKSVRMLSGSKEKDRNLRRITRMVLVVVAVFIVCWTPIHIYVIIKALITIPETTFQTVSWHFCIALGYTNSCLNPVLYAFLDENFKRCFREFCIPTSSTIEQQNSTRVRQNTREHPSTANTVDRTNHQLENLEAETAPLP
T3 sequence (P97266 whole entry): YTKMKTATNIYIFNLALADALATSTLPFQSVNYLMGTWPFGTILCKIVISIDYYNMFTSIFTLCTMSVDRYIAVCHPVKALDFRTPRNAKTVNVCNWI

Row | Molecule | IC50 (Mu-type opioid receptor [1]) [nM] | IC50 [2] [nM] | IC50 [3] [nM] | IC50 (Mu-type opioid receptor [4]) [nM] | IC50 [5] [nM] | IC50 [6] [nM] | IC50 (Mu-type opioid receptor [7]) [nM] | IC50 [8] [nM] | IC50 (Mu-type opioid receptor [9]) [nM] | Ratio [10] | Ratio [11] | Ratio [12] | IC50 [13] [nM]
1 | CC(C)[C@H](NC(=O)[C@H](CC(=O)O)NC(=O)[C@H](Cc1ccccc1)NC(=O)[C@H](C)NC(=O)[C@@H](N)Cc1ccc(O)cc1)C(=O)N[C@H](C(=O)NCC(N)=O)C(C)C | 910 | 1.5 | 1.1 | 420 |  |  |  |  |  |  |  |  | 
2 | CC(C)[C@H](NC(=O)[C@H](CCC(=O)O)NC(=O)[C@H](Cc1ccccc1)NC(=O)[C@H](C)NC(=O)[C@@H](N)Cc1ccc(O)cc1)C(=O)N[C@H](C(=O)NCC(N)=O)C(C)C |  | 3.8 | 3.6 | 5200 |  |  |  |  |  |  |  |  | 
3 | C[C@H](NC(=O)[C@@H](N)Cc1ccc(O)cc1)C(=O)N[C@@H](Cc1ccccc1)C(=O)N[C@@H](CC(=O)O)C(N)=O (H-YAFD-NH2) | 100 | 960 |  | 160 | 1000 |  |  |  |  |  |  |  | 
4 | CC[C@H](NC(=O)[C@@H](NC(=O)CNC(=O)[C@H](Cc1ccccc1)NC(=O)[C@H](C)NC(=O)[C@@H](N)Cc1ccc(O)cc1)C(C)C)C(=O)N[C@@H](CC(=O)O)C(N)=O (H-YAFGV[Abu]D-NH2) |  |  |  |  |  | 29.5 | 130 | 11.1 | 130 | 12 |  |  | 
5 | CC[C@H](NC(=O)[C@H](CCSC)NC(=O)[C@H](CC(C)C)NC(=O)[C@H](Cc1cnc[nH]1)NC(=O)[C@H](Cc1ccccc1)NC(=O)[C@H](CCSC)NC(=O)[C@@H](N)Cc1ccc(O)cc1)C(N)=O (H-YMFHLM[Abu]-NH2) | 360 | 18 | 7.4 | 300 | 1.5 |  |  |  |  |  |  |  | 
6 | CC[C@H](NC(=O)[C@H](CCSC)NC(=O)[C@H](CC(C)C)NC(=O)[C@H](Cc1c[nH]cn1)NC(=O)[C@H](Cc1ccccc1)NC(=O)[C@H](CCSC)NC(=O)[C@@H](N)Cc1ccc(O)cc1)C(N)=O (H-YMFHLM[Abu]-NH2) |  |  |  |  |  |  |  |  |  |  | 200 |  | 
7 | CSCC[C@H](NC(=O)[C@H](CC(C)C)NC(=O)[C@H](Cc1cnc[nH]1)NC(=O)[C@H](Cc1ccccc1)NC(=O)[C@@H](CCSC)NC(=O)[C@@H](N)Cc1ccc(O)cc1)C(=O)N[C@@H](CC(=O)O)C(N)=O (H-Y[dM]FHLMD-NH2) | 1200 | 9 | 6.1 | 1900 | 1.3 |  |  |  |  |  |  |  | 
8 | CC(C)[C@H](NC(=O)[C@H](CCC(=O)O)NC(=O)[C@H](Cc1ccccc1)NC(=O)[C@H](C)NC(=O)[C@@H](N)Cc1ccc(O)cc1)C(=O)N[C@H](C(=O)NCC(=O)O)C(C)C [DELTORPHINE II] |  | 184 |  | 9000 | 5.55 |  |  |  |  |  |  |  | 
9 | C[C@@H](NC(=O)[C@@H](N)Cc1ccc(O)cc1)C(=O)N[C@@H](Cc1ccccc1)C(=O)NCC(=O)N[C@@H](Cc1ccc(O)cc1)C(=O)N1CCC[C@H]1C(=O)N[C@@H](CO)C(N)=O [DERMORPHIN] | 3.2 |  |  | 1.41 |  |  |  |  |  |  |  |  | 
10 | H-YAFDV-NH2 | 640 | 99 |  | 650 | 220 |  |  |  |  |  |  |  | 
11 | H-YAFDVV-NH2 | 700 | 3.9 |  | 320 | 7.5 |  |  |  |  |  |  |  | 
12 | H-YAFQVVG-NH2 |  |  |  |  |  | 3.8 | 280 | 1.51 | 280 | 185 |  | 73 | 
13 | H-YMFDLMD-OH |  |  |  |  |  | 80 | > 30000 | 380 | > 15000 | > 40 |  | > 375 | 55
14 | H-YMFFLMD-NH2 | 450 | 15 | 11 | 75 | 1.6 |  |  |  |  |  | 47 |  | 
15 | H-YMFGLMD-NH2 |  |  |  |  |  | 14 | 161 | 1.65 | 100 | 62 |  | 11.5 | 8
16 | H-YMFHLMD-OH | 1500 | 4.5 | 2.4 | 6000 | 1.3 |  |  |  |  |  |  |  | 
17 | H-YMFHLMN-NH2 [listing 1 of 2 here] | 380 | 20 | 18 | 245 | 8 |  |  |  |  |  |  |  | 
18 | H-YMFHLMN-NH2 [listing 2 of 2 here] |  |  |  |  |  |  |  |  |  |  | 30 |  | 
19 | H-YMFHLMN-OH | 660 | 22 | 16 | 350 | 9 |  |  |  |  |  | 39 |  | 
20 | H-YMFKLMD-NH2 |  |  |  |  |  | 550 | 6000 | 1000 | 7500 | 7.5 |  | 11 | 380
21 | H-YMFYLMD-NH2 | 158 | 9.1 | 5.9 | 100 | 1.02 |  |  |  |  |  | 100 |  | 
